Source: the supplement of paper PMC11208160

Test: recombinant barcode read abundance after kanamycin selection (control-corrected) (log10(CPM+1)); higher = more efficient recombination; sequences stand for … in AGTGCAGAGAAAATCGGCCAGTTTTCTCTGCCTGCAGTCCGCATGCCGT…AGATTTATGCAGCGGACTGCCTTTCTCCCAAAGTGATAAACCGGACAGTATCATGGACCGGTTTTCCCGGTAATCCGTATTTGCAAGGTTGGTTTCACT; site = the 11-nt target
Procedure, shortened: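 Duplicate cultures were plated either on chloramphenicol/ampicillin LB agar, serving as control, or on chloramphenicol/ampicillin/kanamycin with 0.1 mM IPTG. These came from a pooled E. coli library co-electroporated with a donor plasmid, each member pairing a target with an IS621 bridge RNA target-binding loop. Recombination efficiency equals averaged, control-corrected counts per million of recombinant-junction barcodes. It is listed as log10(CPM+1).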
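Note: IS621 recombinase and bridge RNA in Escherichia coli cells.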

Sequence	recombinant barcode read abundance (log10)
AGGCTGGCTTGGGTTCTAACCTGTTGCCT (site AGGCTGACTAG)	0.511
AGGCTGGCTTGGGTTCTAACCTGTTGCCT (site AGGCTGCCTAG)	0.0205
AGGCTGGCTTGGGTTCTAACCTGTTGCCT (site AGGCTGGCTAG)	0.482
AGGCTGGCTTGGGTTCTAACCTGTTGCCT (site AGGCTGTCTAG)	0.166
AGGGACCCTTGGGTTCTAACCTGTTGCCT (site AGGGACCCTAG)	2.62
AGGGACCCTTGGGTTCTAACCTGTTGCCT (site TCTTGGACTGT)	0.0407
AGGGCAGCTTGGGTTCTAACCTGTTGCCT (site AGGGAAGCTAG)	0.135
AGGGCAGCTTGGGTTCTAACCTGTTGCCT (site AGGGCAGCTAG)	0.305
AGGGCAGCTTGGGTTCTAACCTGTTGCCT (site AGGGGAGCTAG)	0.0111
AGGGCAGCTTGGGTTCTAACCTGTTGCCT (site AGGGTAGCTAG)	0.0905
AGGGCGCCTTGGGTTCTAACCTGTTGCCT (site AAGGCGCCTAG)	0.0579
AGGGCGCCTTGGGTTCTAACCTGTTGCCT (site ACGGCGCCTAG)	0.173
AGGGCGCCTTGGGTTCTAACCTGTTGCCT (site AGGGCGCCTAG)	1.63
AGGGCGCCTTGGGTTCTAACCTGTTGCCT (site ATGGCGCCTAG)	0.122
AGGGGTCCTTGGGTTCTAACCTGTTGCAT (site AGGGGTCCTAT)	2.72
AGGGGTCCTTGGGTTCTAACCTGTTGCAT (site TGGGATCCTAT)	0.482
AGGGTACCTTGGGTTCTAACCTGTTGCAG (site AGGGTACCTCT)	2.52
AGGGTACCTTGGGTTCTAACCTGTTGCAG (site GAATCGACTAG)	0.0315
AGGGTAGCTTGGGTTCTAACCTGTTGCCT (site AGGGAAGCTAG)	0.101
AGGGTAGCTTGGGTTCTAACCTGTTGCCT (site AGGGCAGCTAG)	0.224
AGGGTAGCTTGGGTTCTAACCTGTTGCCT (site AGGGGAGCTAG)	0.163
AGGGTAGCTTGGGTTCTAACCTGTTGCCT (site AGGGTAGCTAG)	1.04

Sequence	recombinant barcode read abundance (log10)
AGGTATGCTTGGGTTCTAACCTGTTGCCT (site AGGTATGCTAG)	1.35
AGGTATGCTTGGGTTCTAACCTGTTGCCT (site AGGTCTGCTAG)	0.0877
AGGTATGCTTGGGTTCTAACCTGTTGCCT (site AGGTGTGCTAG)	0.51
AGGTATGCTTGGGTTCTAACCTGTTGCCT (site AGGTTTGCTAG)	0.248
AGGTCTACTTGGGTTCTAACCTGTTGCAC (site AGGTCTACTGT)	0.521
AGGTCTACTTGGGTTCTAACCTGTTGCAC (site GTCCTATCTTA)	0.13
AGGTCTACTTGGGTTCTAACCTGTTGCTT (site AGGTCTACTAA)	0.296
AGGTCTACTTGGGTTCTAACCTGTTGCTT (site GAACGCTCTTG)	0.171
AGGTTCCCTTGGGTTCTAACCTGTTGCTC (site AGGTTCCCTAA)	0.243
AGGTTCCCTTGGGTTCTAACCTGTTGCTC (site AGGTTCCCTCA)	0.101
AGGTTCCCTTGGGTTCTAACCTGTTGCTC (site AGGTTCCCTGA)	1.45
AGGTTCCCTTGGGTTCTAACCTGTTGCTC (site AGGTTCCCTTA)	0.026
AGTAAGCCTTGGGTTCTAACCTGTTGCCA (site AGTAAGCCTTG)	0.33
AGTAAGCCTTGGGTTCTAACCTGTTGCCA (site AGTAAGGCTAG)	0.113
AGTAAGGCTTGGGTTCTAACCTGTTGCCT (site AGTAAGCCTTG)	0.44
AGTAAGGCTTGGGTTCTAACCTGTTGCCT (site AGTAAGGCTAG)	0.0834
AGTACAACTTGGGTTCTAACCTGTTGCCT (site AGAACAACTAG)	0.134
AGTACAACTTGGGTTCTAACCTGTTGCCT (site AGCACAACTAG)	0.153
AGTACAACTTGGGTTCTAACCTGTTGCCT (site AGGACAACTAG)	0.0508
AGTACAACTTGGGTTCTAACCTGTTGCCT (site AGTACAACTAG)	0.237
AGTAGGACTTGGGTTCTAACCTGTTGCAG (site AGCAGGGCTCT)	0.474
AGTAGGACTTGGGTTCTAACCTGTTGCAG (site AGTAGGACTCT)	2

Sequence	recombinant barcode read abundance (log10)
AGTAGTGCTTGGGTTCTAACCTGTTGCCT (site AATAGTGCTAG)	0.186
AGTAGTGCTTGGGTTCTAACCTGTTGCCT (site ACTAGTGCTAG)	0.0779
AGTAGTGCTTGGGTTCTAACCTGTTGCCT (site AGTAGTGCTAG)	0.0473
AGTAGTGCTTGGGTTCTAACCTGTTGCCT (site ATTAGTGCTAG)	0.0347
AGTATATCTTGGGTTCTAACCTGTTGCCT (site AGTATATCTAG)	0.121
AGTATATCTTGGGTTCTAACCTGTTGCCT (site GGCATATCTAG)	0.171
AGTATCCCTTGGGTTCTAACCTGTTGCCG (site AGTATCCCTCG)	0.461
AGTATCCCTTGGGTTCTAACCTGTTGCCG (site GTCTCATCTAT)	0.2
AGTATGACTTGGGTTCTAACCTGTTGCCT (site AGTATGACTAG)	0.923
AGTATGACTTGGGTTCTAACCTGTTGCCT (site CGTATGACTAG)	0.304
AGTATGACTTGGGTTCTAACCTGTTGCCT (site GGTATGACTAG)	0.0345
AGTATGACTTGGGTTCTAACCTGTTGCCT (site TGTATGACTAG)	0.0581
AGTCATACTTGGGTTCTAACCTGTTGCTT (site AGTCATACTAA)	0.199
AGTCATACTTGGGTTCTAACCTGTTGCTT (site AGTCGGACTAA)	0.0739
AGTCGACCTTGGGTTCTAACCTGTTGCCT (site AGTCGACCTAG)	1.78
AGTCGACCTTGGGTTCTAACCTGTTGCCT (site CGTCGACCTAG)	0.328
AGTCGACCTTGGGTTCTAACCTGTTGCCT (site GGTCGACCTAG)	0.112
AGTCGACCTTGGGTTCTAACCTGTTGCCT (site TGTCGACCTAG)	0.143
AGTCGTTCTTGGGTTCTAACCTGTTGCCT (site AGTCGTTCTAG)	0.23
AGTCGTTCTTGGGTTCTAACCTGTTGCCT (site GAGTTCACTCT)	0.141
AGTCTAGCTTGGGTTCTAACCTGTTGCCC (site AGTCTAGCTAG)	0.421
AGTCTAGCTTGGGTTCTAACCTGTTGCCC (site AGTCTAGCTCG)	1.16

Sequence	recombinant barcode read abundance (log10)
AGTCTAGCTTGGGTTCTAACCTGTTGCCC (site AGTCTAGCTGG)	1.11
AGTCTAGCTTGGGTTCTAACCTGTTGCCC (site AGTCTAGCTTG)	0.149
AGTCTAGCTTGGGTTCTAACCTGTTGCTC (site AGTCTAGCTGA)	0.336
AGTCTAGCTTGGGTTCTAACCTGTTGCTC (site AGTCTAGCTTA)	0.62
AGTCTGCCTTGGGTTCTAACCTGTTGCTG (site AGTCTGCCTCA)	0.686
AGTCTGCCTTGGGTTCTAACCTGTTGCTG (site GCCGATACTTG)	0.0929
AGTCTGGCTTGGGTTCTAACCTGTTGCCT (site AGTCTGGCTAG)	0.146
AGTCTGGCTTGGGTTCTAACCTGTTGCCT (site TGTCTGGCTAG)	0.108
AGTGACTCTTGGGTTCTAACCTGTTGCCT (site AGTCTCTCTAG)	0.0765
AGTGACTCTTGGGTTCTAACCTGTTGCCT (site AGTGACTCTAG)	2.32
AGTTCCACTTGGGTTCTAACCTGTTGCCT (site AGTTACACTAG)	0.0694
AGTTCCACTTGGGTTCTAACCTGTTGCCT (site AGTTCCACTAG)	0.324
AGTTCCACTTGGGTTCTAACCTGTTGCCT (site AGTTGCACTAG)	0.0253
AGTTCCACTTGGGTTCTAACCTGTTGCCT (site AGTTTCACTAG)	0.102
AGTTCGTCTTGGGTTCTAACCTGTTGCCG (site AGCTCGTCTCC)	0.29
AGTTCGTCTTGGGTTCTAACCTGTTGCCG (site AGTTCGTCTCG)	0.314
AGTTCTCCTTGGGTTCTAACCTGTTGCCG (site AGTTCTCCTCG)	0.0496
AGTTCTCCTTGGGTTCTAACCTGTTGCCG (site GAGCAGGCTAA)	0.0339
AGTTGTCCTTGGGTTCTAACCTGTTGCAT (site AGTTGTCCTAA)	0.0625
AGTTGTCCTTGGGTTCTAACCTGTTGCAT (site AGTTGTCCTAC)	0.0713
